Consider 34 compounds from ChEMBL document CHEMBL1157539, “Thousands of chemical starting points for antimalarial lead identification” (Nature, 2010).

For the assay, the system named is Plasmodium falciparum. Description: GSK_TCMDC: Inhibition of Plasmodium falciparum 3D7 in whole erythrocytes, using parasite LDH activity as an index of growth. It is filed as functional, organism-based. The settings on record: Plasmodium falciparum, 3D7.
The compound `COc1ccc2nc(-c3ccccc3)cc(N/N=C/c3ccc([N+](=O)[O-])cc3)c2c1` displayed an XC50 of 149 nM.
In turn, `O=C(Nc1ccc(Br)c(C(F)(F)F)c1)c1cccc([N+](=O)[O-])c1` returned an XC50 of 914 nM.
The compound `Cc1c(-c2ccc(C(=O)NC3CC(C)(C)NC(C)(C)C3)cc2)[nH]c2cc(Cl)c(Cl)cc12` showed an XC50 of 751 nM.
In the case of `COc1cccc2cc(C(=O)N[C@@H](CC(C)C)C(=O)N[C@H](C=NN3CCOC3=O)Cc3ccccc3)oc12` it was 686 nM; in that of `O=c1cc(NCCCNCc2cc(C(F)(F)F)ccc2Cl)[nH]c2ccccc12`, 1020 nM; in that of `CN1CCN(Cc2ccc(-c3ccc4c(Nc5cc(O)c(Cl)cc5F)ccnc4c3)o2)CC1`, 110 nM.
`O=C(Nc1cccc(CN2CCCN(CC3CC3)CC2)c1)c1ccc(-c2ccccc2)cc1` gave an XC50 of 930 nM.
On to `CN(CCCCNC(=O)c1cc2ccccc2[nH]1)C1CC2(CCN(C(=O)OC(C)(C)C)CC2)c2ccccc21` (centres undefined), for which the XC50 came out at 928 nM.
In the case of `CC(=O)Nc1cccc(C(=O)Nc2ccc(-c3cccc(-c4nc5cc(F)ccc5[nH]4)c3)cc2)c1`, the XC50 amounted to 633 nM.
In the case of `COc1ccc2[nH]c(C)cc(=NN=Cc3cc(OC)c(OC)cc3OC)c2c1`, the XC50 came out at 739 nM.
In the case of `FC(F)(F)c1ccc(-c2ccc(CNC3CCN(CCN4CCOCC4)CC3)cc2)cc1` it was 756 nM; in that of `CCOc1cc2c(cc1OCC)C(c1cc(OC)c(O)cc1Cl)NCC2` (centres undefined), 748 nM; in that of `O=C(NC1CCCCC1)N(Cc1ccccc1-c1ccc(CNCCc2ccccc2)cc1)C1CCN(Cc2ccccc2)CC1`, 930 nM.
`O=C(Nc1ccc(-c2ccccc2)s1)N[C@H]1CCN(Cc2ccc(OCCCN3CCCCC3)cc2)C1` returned an XC50 of 742 nM.
In turn, `Cc1ccc(OC2CCN(CCCCC3(C)C(=O)Nc4ccccc43)CC2)cc1` (centres undefined) had an XC50 of 743 nM.
On to `O=C1NC(=O)C(c2ccc(Cl)cc2)=C1Nc1cccc(S(=O)(=O)C(F)(F)F)c1`, for which the XC50 was 744 nM.
In the case of `Cc1sc(N2CCCCC2)nc1C(=O)Nc1ccc(F)cc1C(F)(F)F` it was 1150 nM.
For `CCCCN(CCCC)CCCN(CCCN(CCCC)CCCC)c1cc(C)nc(Nc2ccc(Cl)cc2)n1`, the XC50 was 370 nM.
Turning to `Cc1cc(N[C@@H](Cc2ccccc2)C(=O)NCc2cccs2)nc(NCCc2ccccn2)n1`, the XC50 amounted to 1280 nM.
For `COC(=O)Nc1cc(C(F)(F)F)ccc1N1CCC(CNS(=O)(=O)c2ccc(OC)cc2)CC1`, the XC50 came to 249 nM.
In turn, `COc1ccccc1C1CCN(C2CCC(NC(=O)c3cc4ccccc4[nH]3)CC2)CC1` (centres undefined) returned an XC50 of 1210 nM.
As to `Cc1cc(N2CCCC2)nc(Nc2ccc(NC(=O)COc3ccccc3)cc2)n1`, the XC50 was 647 nM.
In the case of `COc1ccc2nccc([C@@H](O)CN3CCC(NCc4ccc5scnc5c4)CC3)c2c1` it was 399 nM.
On to `CCn1c(C)cc(C=C2SC(=Nc3ccccc3)NC2=O)c1C`, for which the XC50 came out at 680 nM.
Turning to `COc1cccc(C(=O)C2CC2CN(C)CC(O)c2cc(C)c(OC)cc2C)c1` (centres undefined), the XC50 stood at 1140 nM.
`CS(=O)(=O)N1CC2(CCN(CCC(NC(=O)NCc3ccccc3Cl)c3ccc(Cl)c(Cl)c3)CC2)c2ccccc21` (centres undefined) yielded an XC50 of 1110 nM.
To `CCOC(=O)c1c(NC(NC(=O)c2ccc(C(C)(C)C)cc2)C(Cl)(Cl)Cl)sc2c1CCCC2` (centres undefined) belongs 809 nM; to `Nc1nc(N)c2c(ccc3c2ccn3Cc2ccccc2)n1`, 3.2 nM.
`O=C(/C=C/c1ccc(Cl)c(Cl)c1)NCCCCCCN1CCCN(C(=O)Nc2cc(F)cc(F)c2)CC1`: the XC50 was found to be 708 nM.
In the case of `CC1CCN(CC[C@H]2CCCN2S(=O)(=O)c2cccc(NC(=O)c3cc4ccccc4s3)c2)CC1`, the XC50 amounted to 830 nM.
Consider `Cc1cc(-c2cccc(CNCCc3ccc(Cl)cc3)c2)cnc1N`, for which the XC50 stood at 1100 nM.
As for `CCc1cc(-c2onc(C(F)(F)F)c2-c2ccccc2)c(O)cc1OC`, the XC50 was found to be 787 nM.
For the compound `N#Cc1cccc(NC(=O)c2cccc(S(=O)(=O)NC3CCN(CC4CCCCC4)C3)c2)c1` (centres undefined), the XC50 is 578 nM.
On to `CCCCCCn1c(Sc2ccc(C#N)c([N+](=O)[O-])c2)nnc1-c1ccc(OC)cc1`, for which the XC50 was determined as 849 nM.
